This passage reports DC50 results from US20230295197A1, “STAT5 and STAT6 Degraders and Uses Thereof” (REGENTS OF THE UNIVERSITY OF MICHICAN, priority 2022, published 2023).

Structures are written as SMILES. Like-named read-outs stand apart in the source and are kept apart here.

For this assay, the target named is T1, STAT6 (Homo sapiens, UniProt P42226).
T1 construct: endogenous in cells; host or cells: MOLM-16, KU-812, SKNO1, MB231, L1236
T1 sequence (P42226 1-847): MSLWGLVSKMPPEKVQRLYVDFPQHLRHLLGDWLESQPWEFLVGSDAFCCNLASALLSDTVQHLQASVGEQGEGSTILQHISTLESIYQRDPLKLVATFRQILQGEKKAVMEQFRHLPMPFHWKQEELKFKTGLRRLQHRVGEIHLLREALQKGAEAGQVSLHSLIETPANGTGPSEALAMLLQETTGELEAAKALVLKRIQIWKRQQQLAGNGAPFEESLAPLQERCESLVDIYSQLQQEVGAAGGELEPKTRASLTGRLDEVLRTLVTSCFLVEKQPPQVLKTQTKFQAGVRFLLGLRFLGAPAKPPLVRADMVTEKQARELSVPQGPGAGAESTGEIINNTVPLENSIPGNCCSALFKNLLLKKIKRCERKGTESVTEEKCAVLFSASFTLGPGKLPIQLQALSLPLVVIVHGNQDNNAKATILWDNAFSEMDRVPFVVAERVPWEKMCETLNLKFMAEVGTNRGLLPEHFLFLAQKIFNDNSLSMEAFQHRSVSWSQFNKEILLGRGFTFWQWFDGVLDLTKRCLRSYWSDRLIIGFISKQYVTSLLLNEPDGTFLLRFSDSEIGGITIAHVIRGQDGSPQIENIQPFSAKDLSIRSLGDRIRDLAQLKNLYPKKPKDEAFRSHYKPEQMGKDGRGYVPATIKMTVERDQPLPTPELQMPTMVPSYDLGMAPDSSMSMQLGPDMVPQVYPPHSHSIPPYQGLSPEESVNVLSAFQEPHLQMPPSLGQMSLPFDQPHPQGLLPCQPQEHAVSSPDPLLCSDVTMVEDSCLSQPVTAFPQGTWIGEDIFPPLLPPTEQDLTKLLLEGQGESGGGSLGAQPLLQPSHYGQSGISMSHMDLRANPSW
Nature of the assay: Immunoblotting (Western blot) analysis of STAT6 degradation efficiency of degraders in treated cells. Type of assay: cell-based. The procedure:
Evaluation of the degradation efficiency of degraders may be accomplished by immunoblotting analysis. The representative general protocol is the following:
Cells are maintained in the appropriate culture medium with 10% FBS at 37° C. and an atmosphere of 5% CO2. Cell lines are used within three months of thawing fresh vials. Cells are lysed 1× Cell Lysis Buffer (Cell Signaling Technology, #9803), resolved by SDS-PAGE NuPAGE gel (Thermo Fisher Scientific), and transferred to a PVDF membrane (Millipore). Membranes are blocked using Odyssey TBS Blocker Buffer (LI-COR). IRDye 680RD and 800CW Dye-labeled secondary antibodies (LI-COR) are used. The washed membranes are scanned using Odyssey CLx imager (LI-COR). The intensity of Western blot signaling is quantitated using the Odyssey software. Primary antibodies used are: STAT5 Rabbit mAb (Cell Signaling Technology, #94205), STAT6 Rabbit mAb (Cell Signaling Technology, #5397) and GAPDH mouse monoclonal antibody (Santa Cruz Biotechnology, sc-47724).
To evaluate the degradation efficiency of degraders, immunoblotting analysis was performed. The general protocol is the following.
About 1 million cells for each data point were treated with compounds at indicated concentrations and durations. Untreated and treated cells in cell culture medium were transferred into tubes, followed by centrifugation at 3,000 rpm and 4° C. for 6 min Supernatants were removed from tubes and radioimmunoprecipitation assay (RIPA) lysis buffer supplemented with 1% protease inhibitor cocktail (Fisher Scientific cat. PI87786) and phosphatase inhibitor (Roche cat. 04906837001) were added to tubes containing the remaining cell pellets. The tubes were then left on ice for 30 min and placed in a −80° C. freezer. Subsequently they were thawed in 37° C. water, then centrifuged at 14,000 rpm for 15 min and the cell lysates transferred to new tubes. The concentration of total proteins in each tube was calculated using the Pierce BCA protein Assay kit (cat. 23225). Based on the calculated protein concentration, cell lysates containing approximately the same amount of proteins were transferred to new tubes, then distilled water and 4× Protein Sample Loading Buffer for Western Blots (LI-COR cat. 928-40004) supplemented with 20% of mercaptoethanol (Sigma Aldrich cat. M6250) were added on ice. The cell lysates were then reduced and denatured at 95° C. for 5 min. From the tubes containing cell lysates an equal amount of protein samples (20-40 μg) was loaded into precast 8%, 10%, 4%-12%, or 4%-20% Tris-glycine gels (Novex) filled with Tris-glycine SDS running buffer. After the proteins were resolved, they were transferred onto Immobile-FL PVDF Membrane (Millipore Sigma cat. IPFL00010), using Mini Trans-Blot Electrophoretic Transfer Cell (Bio-Rad 1703930). The membranes were blocked with Intercept Blocking Buffer (LI-COR cat. 927-70001) in LI-COR Western Blot boxes for 1 h at rt. The membranes were washed with 1× Tris-buffered saline-Tween-20 (TBST, 1× solution was made from 20×TBST solution, ThermoFisher Scientific cat. 28360) for 5 min 4 times. The membranes were incubated overnight at 4° C. in Intercept Blocking Buffer supplemented with primary antibodies (normally antibody:buffer 1:1000) and Tween-20. The membranes were washed with TBST for 5 min 4 times and were incubated with Intercept Blocking Buffer supplemented with IRDye 800CE Secondary Antibodies, IRDye 680RD Secondary Antibodies (LI-COR biosciences), Tween-20, and 10% SDS solution, for 1 h at rt. The membranes were then washed with TBST for 5 min 4 times and rinsed with deionized water before drying and scanning with Odyssey Dlx Amazing System (LI-COR). The immunoblots were finally quantified by the software.

Where [1] appears, read: MOLM-16 cells, class symbols, read-out: DC50 S6 MOLM-16.
Setting [2] is: L1236 cells, read-out: DC50 S6 L1236.

A word on the DC50: it is the midpoint of the concentration-degradation curve. Take `CC(C)(C)c1ccc(C[C@H](NC(=O)c2cc3cc(C(F)(F)P(=O)(O)O)ccc3s2)C(=O)N2C[C@@H](OCCCCCCC#Cc3cccc4c3CN(C3CCC(=O)NC3=O)C4=O)C[C@H]2C(=O)N2CCO[C@H](c3ccccc3)C2)cc1` (stereo partly drawn) [Compound 589, ((2-(((2S)-3-(4-(tert-butyl)phenyl)-1-((2S,4S)-4-((8-(2-(2,6-dioxopiperidin-3-yl)-1-oxoisoindolin-4-yl)oct-7-yn-1-yl)oxy)-2-((R)-2-phenylmorpholine-4-carbonyl)pyrrolidin-1-yl)-1-oxopropan-2-yl)carbamoyl)benzo[b]thiophen-5-yl)difluoromethyl)phosphonic acid]: the 50% degradation concentration (DC50) under setting [1] was in the range of 1 to 10 µM.

Take `Cc1ncsc1-c1ccc([C@H](C)NC(=O)[C@@H]2C[C@@H](O)CN2C(=O)[C@@H](NC(=O)CCCCCCCCNC(=O)COc2ccc3c(c2)CN(C(=O)[C@@H](NC(=O)c2cc4cc(C(F)(F)P(=O)(O)O)ccc4s2)C(C)(C)C)[C@H](C(=O)N2CCC[C@H](c4ccccc4)C2)C3)C(C)(C)C)cc1` [Compound 477, (difluoro(2-(((S)-1-((S)-7-(2-((9-(((S)-1-((2S,4R)-4-hydroxy-2-(((S)-1-(4-(4-methylthiazol-5-yl)phenyl)ethyl)carbamoyl)pyrrolidin-1-yl)-3,3-dimethyl-1-oxobutan-2-yl)amino)-9-oxononyl)amino)-2-oxoethoxy)-3-((R)-3-phenylpiperidine-1-carbonyl)-3,4-dihydroisoquinolin-2(1H)-yl)-3,3-dimethyl-1-oxobutan-2-yl)carbamoyl)benzo[b]thiophen-5-yl)methyl)phosphonic acid]: under setting [1], the DC50 is greater than 10 µM.

Consider `CC(C)(C)[C@H](NC(=O)c1cc2cc(C(F)(F)P(=O)(O)O)ccc2s1)C(=O)N1CCN(C(=O)CC(=O)NCCCCC#Cc2ccc3c(c2)C(=O)N(C2CCC(=O)NC2=O)C3=O)C[C@H]1C(=O)N1CCO[C@H](c2ccccc2)C1` (stereo partly drawn) [Compound 514, ((2-(((2S)-1-((2S)-4-(3-((6-(2-(2,6-dioxopiperidin-3-yl)-1,3-dioxoisoindolin-5-yl)hex-5-yn-1-yl)amino)-3-oxopropanoyl)-2-((R)-2-phenylmorpholine-4-carbonyl)piperazin-1-yl)-3,3-dimethyl-1-oxobutan-2-yl)carbamoyl)benzo[b]thiophen-5-yl)difluoromethyl)phosphonic acid], for which, under setting [1], the half-maximal degradation concentration (DC50) is greater than 10 µM.

With `CC(C)(C)[C@H](NC(=O)c1cc2cc(C(F)(F)P(=O)(O)O)ccc2s1)C(=O)N1C[C@@H](OCC(=O)NCCCC#Cc2cccc3c2C(=O)N(C2CCC(=O)NC2=O)C3=O)C[C@H]1C(=O)N1CCC[C@H](c2ccccc2)C1` (stereo partly drawn) [Compound 497, ((2-(((2S)-1-((2S,4S)-4-(2-((5-(2-(2,6-dioxopiperidin-3-yl)-1,3-dioxoisoindolin-4-yl)pent-4-yn-1-yl)amino)-2-oxoethoxy)-2-((R)-3-phenylpiperidine-1-carbonyl)pyrrolidin-1-yl)-3,3-dimethyl-1-oxobutan-2-yl)carbamoyl)benzo[b]thiophen-5-yl)difluoromethyl)phosphonic acid], under setting [1], the DC50 was greater than 10 µM.

For `CC(C)(C)[C@H](NC(=O)c1cc2cc(C(F)(F)P(=O)(O)O)ccc2s1)C(=O)N1CCN(C(=O)CC(=O)NCCCCCC#Cc2cccc3c2C(=O)N(C2CCC(=O)NC2=O)C3=O)C[C@H]1C(=O)N1CCO[C@H](c2ccccc2)C1` (stereo partly drawn) [Compound 515, ((2-(((2S)-1-((2S)-4-(3-((7-(2-(2,6-dioxopiperidin-3-yl)-1,3-dioxoisoindolin-4-yl)hept-6-yn-1-yl)amino)-3-oxopropanoyl)-2-((R)-2-phenylmorpholine-4-carbonyl)piperazin-1-yl)-3,3-dimethyl-1-oxobutan-2-yl)carbamoyl)benzo[b]thiophen-5-yl)difluoromethyl)phosphonic acid], the DC50 under setting [1] is greater than 10 µM.

As to `Cc1ncsc1-c1ccc([C@H](C)NC(=O)[C@@H]2C[C@@H](O)CN2C(=O)[C@@H](NC(=O)CCCNC(=O)CC(=O)N2CCN(C(=O)[C@@H](NC(=O)c3cc4cc(C(F)(F)P(=O)(O)O)ccc4s3)C(C)(C)C)[C@H](C(=O)N3CCC[C@H](c4ccccc4)C3)C2)C(C)(C)C)cc1` [Compound 454, (difluoro(2-(((S)-1-((S)-4-(3-((4-(((S)-1-((2S,4R)-4-hydroxy-2-(((S)-1-(4-(4-methylthiazol-5-yl)phenyl)ethyl)carbamoyl)pyrrolidin-1-yl)-3,3-dimethyl-1-oxobutan-2-yl)amino)-4-oxobutyl)amino)-3-oxopropanoyl)-2-((R)-3-phenylpiperidine-1-carbonyl)piperazin-1-yl)-3,3-dimethyl-1-oxobutan-2-yl)carbamoyl)benzo[b]thiophen-5-yl)methyl)phosphonic acid], the DC50 runs as follows: under setting [2], greater than 10 µM; under setting [1], greater than 10 µM.

`Cc1ncsc1-c1ccc([C@H](C)NC(=O)[C@@H]2C[C@@H](O)CN2C(=O)[C@@H](NC(=O)CCCCCNC(=O)COc2ccc3c(c2)CN(C(=O)[C@@H](NC(=O)c2cc4cc(C(F)(F)P(=O)(O)O)ccc4s2)C(C)(C)C)[C@H](C(=O)N2CCC[C@H](c4ccccc4)C2)C3)C(C)(C)C)cc1` [Compound 474, (difluoro(2-(((S)-1-((S)-7-(2-((6-(((S)-1-((2S,4R)-4-hydroxy-2-(((S)-1-(4-(4-methylthiazol-5-yl)phenyl)ethyl)carbamoyl)pyrrolidin-1-yl)-3,3-dimethyl-1-oxobutan-2-yl)amino)-6-oxohexyl)amino)-2-oxoethoxy)-3-((R)-3-phenylpiperidine-1-carbonyl)-3,4-dihydroisoquinolin-2(1H)-yl)-3,3-dimethyl-1-oxobutan-2-yl)carbamoyl)benzo[b]thiophen-5-yl)methyl)phosphonic acid]: under setting [1], the DC50 is greater than 10 µM.

On to `Cc1ncsc1-c1ccc([C@H](C)NC(=O)[C@@H]2C[C@@H](O)CN2C(=O)[C@@H](NC(=O)CCCCCCCNC(=O)CO[C@H]2C[C@@H](C(=O)N3CCO[C@H](c4ccccc4)C3)N(C(=O)[C@@H](NC(=O)c3cc4cc(C(F)(F)P(=O)(O)O)ccc4s3)C(C)(C)C)C2)C(C)(C)C)cc1` [Compound 431, (difluoro(2-(((S)-1-((2S,4S)-4-(2-((8-(((S)-1-((2S,4R)-4-hydroxy-2-(((S)-1-(4-(4-methylthiazol-5-yl)phenyl)ethyl)carbamoyl)pyrrolidin-1-yl)-3,3-dimethyl-1-oxobutan-2-yl)amino)-8-oxooctyl)amino)-2-oxoethoxy)-2-((R)-2-phenylmorpholine-4-carbonyl)pyrrolidin-1-yl)-3,3-dimethyl-1-oxobutan-2-yl)carbamoyl)benzo[b]thiophen-5-yl)methyl)phosphonic acid], for which the DC50 is greater than 10 µM under setting [2] and greater than 10 µM under setting [1].
